The test system of the assay is histone deacetylases. The assay is described as follows: Relief of repressed LacZ transgenes in cleavage stage embryos by inhibitors of histone deacetylases. Type of assay: cell-based, mouse. The following applies: for proportion of β-gal+ embryos after NaB treatment: repressed paternal transgene; for release from repression of LacZ transgenes in treated embryos: DCR6 and DCR7 2-cell embryos, NaB 2.5 mM or TSA 66 nM for 24 h. On the procedure: One-cell embryos from different lines, carrying a transgene of maternal (A) or paternal (B) origin were recovered at 24 hphCG and allowed to develop in the absence (control) or presence of sodium butyrate (NaB; 2.5 mM) or trichostatin A (TSA; 66 nM) for 24 h. Aphidicolin, an inhibitor of DNA polymerases was used alone (Aph; 2 μg/ml) or in combination with sodium butyrate (Aph+NaB).
It is becoming more and more evident that at least part of the transcriptional repression dependent on methylated CpG islands is mediated by histone deacetylation. […] To test whether this mechanism could be responsible for the non-permissive transcriptional state established during gametogenesis and inherited by the embryo, cleavage stage embryos were treated with the deacetylase inhibitors, sodium butyrate (NaB) and the trichostatin A (TSA), two inhibitors of histone deacetylases (Yoshida et al., 1995).

As to `CCCC(=O)[O-].[Na+]` [NaB, sodium butyrate], the “release from repression of LacZ transgenes in treated embryos” value is “release from repression”. Also, the “proportion of β-gal+ embryos after NaB treatment” value (“proportion of β-gal+ embryos” for short) (DCR1 line, 3% β-gal+ in untreated embryos) is reported as 70%. In addition, for the setting “DCR3 line, 18% β-gal+ in untreated embryos”, the “proportion of β-gal+ embryos” value amounted to 100%. Also, the “proportion of β-gal+ embryos” value (DCR5 line, 0% β-gal+ in untreated embryos) was determined as 10%.

Consider `CC(/C=C/C(=O)NO)=C\[C@@H](C)C(=O)c1ccc(N(C)C)cc1` [TSA, trichostatin A], for which the “release from repression of LacZ transgenes in treated embryos” value is “release from repression”.

The record behind these values is US20040097439A9, “Isolated polynucleotides having a reduced or an increased content of epigenetic control motifs and uses thereof” (priority 1999, published 2004).
